Series [1] is described as follows: Water solubility in aqueous buffer under physiological conditions. The series is classed as physicochemical.
In series [2] the test system is WAG/RijCmcr rats, leg-out PBI irradiated. Description: Leg-out PBI rat model of radiation-induced lung injury (RILI), lung histology. The series is classed as in vivo. Particulars: 13.5 Gy (female) or 13 Gy (male) leg-out PBI rats; fostamatinib 10 or 20 mg/kg; H&E lung sections, 5-point scale; versus untreated irradiated rats. An excerpt:
Irradiation. Leg-out PBI rat models: WAG/RijCmcr female and male rats are unilaterally irradiated, dorsal to ventral, without the use of anesthetics at 11-12 weeks of age. Irradiations are done between 8-10 am. For leg-out PBI, non-anesthetized rats are immobilized in a plastic jig and irradiated using a […] orthovoltage x-ray system (Precision X-Ray, North Branford, Connecticut). […] Doses can range from 13-14.5 Gy for female rats and 12.5-14.5 Gy for males. During irradiation, each rat is confined to a chamber which allows irradiation of 2 rats simultaneously. One hind limb of each rat is carefully externalized from the chamber and shielded with a 0.25-inch lead block. […] Whole mount lung sections (4 μm thick) are stained with hematoxylin and eosin (H&E) and also stained with tryptase antibody (IMGENEX catalogue #IMG-80250, 1:150) (Gao et al. Radiat Res 179: 465-74; 2013. [PubMed: 23480564]) and five randomly selected fields (20×) of each lung are evaluated. The foamy macrophages, vascular, and alveolar wall thickness are scored as described previously (Medhora et al. Radiat Res 182: 545-55; 2014. [PubMed: 25361399]; Medhora et al. J Radiat Res 56: 248-60; 2015. [PubMed: 25368342]); injury is measured on a 5-point scale and a mean composite lung injury score is calculated. Mast cells are assessed by positive tryptase staining in five randomly selected fields (20×) of each lung. […]

≈ marks a conversion by molar mass, not a printed value.

By solubility is commonly meant the dissolved amount per volume that the medium holds. A higher solubility goes with much dissolved substance. For `COc1cc(Nc2ncc(F)c(Nc3ccc4c(n3)NC(=O)C(C)(C)O4)n2)cc(OC)c1OC` [Compound 1, N4-(2,2-Dimethyl-3-oxo-4H-5-pyrid[1,4]oxazin-6-yl)-5-fluoro-N2-(3,4,5-trimethoxyphenyl)-2,4-pyrimidinediamine], the solubility in series [1] lay in the range of 1 to 2 µg/mL (≈ 2.13 to 4.25 µM).
`COc1cc(Nc2ncc(F)c(Nc3ccc4c(n3)N(COP(=O)(O)O)C(=O)C(C)(C)O4)n2)cc(OC)c1OC` [Compound 4]: in series [2], the “mean composite lung injury score” value is “lower”. Moreover, in series [1], the solubility is more than 5000 µg/mL. In addition, the “solubility of phosphate prodrug relative to active drug (Compound 1)” value in series [1] (Compound 4 vs Compound 1) is “approximately 2000 times greater”.
